{"source": "patent US12390435B2", "about": "“Electrophiles and electrophile pro-drugs as RAD51 inhibitors” (University of Pittsburgh—Of the Commonwealth System of …, priority 2018, dated 2025)", "key": {"[1]": {"test_system": "MDA-MB-231 cells", "assay": "Cell cycle analysis with propidium iodide", "format": "cell-based", "conditions": "5 μM NO2-OA versus DMSO", "description": "Samples were analyzed at the Flow Cytometry Core at MWRI utilizing a BD LSRII (BD)."}, "[2]": {"test_system": "MDA-MB-231 and MDA-MB-468 cells", "assay": "FACS cell cycle analysis", "format": "cell-based", "conditions": "5 μM, 24 hr", "description": "(§1) Adherent and nonadherent cells were collected, centrifuged at 2000×rpm for 10 min, washed with ice-cold phosphate-buffered saline, fixed with cold 70% ethanol at 4° C. for 30 mins, and stained with 50 μg/mL propidium iodide (Sigma-Aldrich). FACS analysis was performed at the University of Pittsburgh Department of Immunology Unified Flow Core Facility. Three individual experiments were done, and statistical comparisons among phases (G0/G1, S, and G2/M) were determined by one-way analysis of variance followed by Tukey post-test."}, "[3]": {"test_system": "MCF-10A cells", "assay": "FACS cell cycle analysis", "format": "cell-based", "conditions": "5 μM, 24 hr", "description": "as §1"}, "[4]": {"target": "T1, RAD51-ABL complex (Homo sapiens, UniProt Q06609)", "T1 construct": "expressed in transfected cells; host or cells: HEK 293T", "T1 sequence (Q06609 whole entry, one chain of several)": "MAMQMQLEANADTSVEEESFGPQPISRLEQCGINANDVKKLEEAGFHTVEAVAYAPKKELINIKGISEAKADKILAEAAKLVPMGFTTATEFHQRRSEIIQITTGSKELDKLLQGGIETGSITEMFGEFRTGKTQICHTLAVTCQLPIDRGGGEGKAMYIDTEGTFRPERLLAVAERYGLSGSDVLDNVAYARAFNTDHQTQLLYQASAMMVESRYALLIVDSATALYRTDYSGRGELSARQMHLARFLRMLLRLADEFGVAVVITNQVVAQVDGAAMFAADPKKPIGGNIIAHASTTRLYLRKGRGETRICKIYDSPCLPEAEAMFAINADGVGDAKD", "assay": "FLAG-RAD51/ABL immunoprecipitation in 293T cells", "format": "cell-based", "conditions": "0 to 5 μM, 1 h", "description": "Cell lysates and immunoprecipitation were prepared. For immunoprecipitation analysis, one million HEK 293T cells were transiently transfected with Fugene 6 (Promega) and 2 μg pQCXIP (EV) or FLAG-RAD51 pQCXIP plasmids and precipitated with Anti-FLAG M2 Affinity Gel (Sigma).\nCys319 is located in the RAD51 C-terminus within one of the two ABL-SH3 binding domains (amino acids 283-286 and 318-321). […] ABL regulates RAD51 activity via sequential phosphorylation of RAD51 Tyr54 and then Tyr315."}, "[5]": {"test_system": "breast cancer cell", "assay": "Clonogenic assay after 2 Gy IR", "format": "cell-based", "conditions": "increasing concentrations"}, "[6]": {"target": "T2, RAD51 (Homo sapiens, UniProt Q06609)", "T2 construct": "purchased Abcam", "T2 sequence (Q06609 whole entry)": "as the sequence (Q06609 whole entry, one chain of several) above", "assay": "RAD51 ssDNA binding, fluorescence polarization", "format": "biochemical", "conditions": "5 or 10 μM, ATP and Alexa Fluor 488 DNA", "description": "Reactions were performed in black 96-well plates (Greiner) in 50 μL reaction volumes in 20 mM HEPES pH 7.5, 10 mM MgCl2, 0.25 μM BSA, 2% glycerol, 30 mM NaCl and 4% DMSO. […] 2 mM ATP and 100 nM 5′-Alexa Fluor 488 ssDNA poly-dT (Integrated DNA technologies) were added to the reaction and incubated for 90 min at 37° C. DNA binding was measured using fluorescence polarization (FP) on a Tecan Spark 20M (ex/em 480 nm/535 nm). Compound fluorescence quenching was detected as above in the absence of RAD51 protein."}, "[7]": {"test_system": "MDA-MB-231 cells", "assay": "Cell growth assay (FluoReporter dsDNA)", "format": "cell-based", "conditions": "Homo sapiens, MDA-MB-231; 48 hr, 0-15 μM", "description": "(§2) Cells were plated at a cell density of 5000 cells per well in 96-well plates. […] Cells were counted using the FluoReporter dsDNA quantitation kit (Molecular Probes) according to the manufacturer's instructions. Fluorescence was measured using a SpectraMax M2 plate reader (Molecular Devices). […] Three individual experiments were done (n=5/each), and statistical comparison between two cell lines across doses was determined by two-way analysis of variance followed by Tukey post-test."}, "[8]": {"test_system": "MDA-MB-468 cells", "assay": "Cell growth assay (FluoReporter dsDNA)", "format": "cell-based", "conditions": "Homo sapiens, 48 hr, 0-15 μM", "description": "as §2"}, "[9]": {"test_system": "MCF7 cells", "assay": "Cell growth assay (FluoReporter dsDNA)", "format": "cell-based", "conditions": "Homo sapiens, 48 hr, 0-15 μM", "description": "as §2"}, "[10]": {"test_system": "MCF-10A cells", "assay": "Cell growth assay (FluoReporter dsDNA)", "format": "cell-based", "conditions": "for IC50: Homo sapiens, MCF-10A", "description": "as §2"}, "[11]": {"test_system": "MDA-MB-231 orthotopic tumor", "assay": "Orthotopic MDA-MB-231 tumor model, 15 mg/kg gavage", "format": "in vivo, mice", "description": "Animals used for this study were approved by and conducted according to the guidelines of the University of Pittsburgh IACUC. MDA-MB-231 cells (0.5×106) were injected into the mammary fat pad (left 4th gland) of 6-wk-old female nude mice in a volume of 20 μL sterile saline. When tumors reached an average volume of 100 mm^3, mice were treated with OA+vehicle (n=8), OA-NO2+vehicle (n=7), OA+talazoparib (0.3 mg/kg) (n=10) or OA-NO2 (15 mg/kg)+talazoparib (n=11). Tumor volume was measured by caliper over time in P-values: *<0.01, ***<0.001, ****<0.0001. The surgical procedure has been previously described.\nWhether NO2-OA could also enhance TNBC DNA damage in vivo was also assessed. […] (FIG. 1B). […] This response became statistically significant after Grubbs outlier detection and elimination of OA treated mouse #2. The orthotopic tumor in OA mouse #2 was the largest tumor in the study, with necrosis potentially causing enhanced γH2AX levels."}, "[12]": {"conditions": "intravenous and oral formulations; cited from earlier work"}, "[13]": {"target": "T3, RAD51 and ABL core (Homo sapiens, UniProt Q06609)", "T3 construct": "His; made in house; host or cells: E. coli BL21(DE3)pLysS", "T3 sequence (Q06609 whole entry)": "as the sequence (Q06609 whole entry, one chain of several) above", "assay": "In vitro RAD51-ABL binding assay", "format": "biochemical", "conditions": "purified proteins, 0, 100 or 500 nM, 1 h", "description": "FIGS. 3A-3I. […] FIG. 3A. […] FIG. 3B. […] FIG. 3C. […] Three independent experiments were quantified and analyzed by one-way ANOVA * p<0.05. FIG. 3D. […] FIG. 3E. […] FIG. 3F. […] Purified RAD51 and ABL core proteins were incubated with OA-NO2 at 0, 100 or 500 nM for 1 h and ABL was precipitated. The amount of bound RAD51 was detected by immunoblot. FIG. 3G. […] RAD51 interactions with ABL and phosphorylated RAD51 Y315 were probed by IP and immunoblot. FIG. 3H. […] Cells were incubated with biotinylated NO2-OA and then lysates were precipitated with streptavidin coated agarose and detected by immunoblot. FIG. 3I.\nRecombinant His-tagged RAD51 in the pET21a vector were transformed into E. coli BL21(DE3)pLysS cells (EMD Millipore) and purified."}, "[14]": {"test_system": "MDA-MB-231 and MDA-MB-468 cells", "assay": "MTT viability / cytotoxicity", "format": "cell-based"}}, "note": "Where two headings read alike, the source gives them in different places."}
{"compound": "CCCCCCCCC(=CCCCCCCCC(=O)O)[N+](=O)[O-]", "note": "[NO2-OA, 10-nitro-octadec-9-enoic acid]", "values": [{"measurement": "cell cycle changes", "setting": "[1]", "result": "no significant changes to the cell cycle occurred"}, {"measurement": "cell cycle phase distribution", "setting": "[2]", "result": "significantly increased the percentage of cells at G2/M phase"}, {"measurement": "cell cycle phase populations (G0/G1, S, G2/M)", "setting": "[3]", "result": "not affected"}, {"measurement": "ABL bound to RAD51", "setting": "[4]", "result": "decreased the amount of ABL bound to RAD51"}, {"measurement": "RAD51 Tyr315 phosphorylation", "setting": "[4]", "result": "inhibited"}, {"measurement": "cell death in clonogenic assay", "setting": "[5]", "result": "enhanced breast cancer cell death"}, {"measurement": "relative fluorescence polarization of RAD51 with ssDNA", "setting": "[6]", "result": "decreased the relative polarization of RAD51"}, {"measurement": "IC50", "setting": "[7]", "result": "2.7 ± 0.11", "unit": "µM"}, {"measurement": "IC50", "setting": "[8]", "result": "1.6 ± 0.11", "unit": "µM"}, {"measurement": "IC50", "setting": "[9]", "result": "11.6 ± 3.59", "unit": "µM"}, {"measurement": "IC50", "setting": "[10]; read-out: IC50 cell growth, only NO2-OA treatment, probenecid study, no probenecid, 0-25 μM 48 hr", "result": "14.2 ± 1.05", "unit": "µM"}, {"measurement": "IC50", "setting": "[10]; 48 hr, 0-15 μM, read-out: IC50 cell growth", "result": "7.7 ± 1.93", "unit": "µM"}, {"measurement": "decrease of IC50 by probenecid", "setting": "[10]; probenecid pretreated versus only NO2-OA", "result": 2, "unit": "fold"}, {"measurement": "tumor γH2AX level by immunoblot", "setting": "[11]; 15 mg/kg by gavage for 4 wk, versus OA", "result": "higher levels of γH2AX"}, {"measurement": "tumor growth rate", "setting": "[11]; 15 mg/kg by gavage for 4 wk, versus OA treated controls", "result": "significantly decreased tumor growth rates"}, {"measurement": "tumor reduction / tumor volume in combination with talazoparib", "setting": "[11]; NO2-OA 15 mg/kg + talazoparib 0.3 mg/kg versus either alone", "result": "significant greater tumor reduction compared to talazoparib or NO2-OA alone"}, {"measurement": "clinical safety", "setting": "[12]", "result": "safe"}, {"measurement": "RAD51-ABL core complex formation", "setting": "[13]", "result": "abolished"}, {"measurement": "cell viability (MTT)", "setting": "[14]", "result": "significantly reduced the viability"}, {"measurement": "cytotoxicity", "setting": "[14]; 5 μM, up to 24 hr, any cell line", "result": "No cytotoxicity was detectable"}]}
